Data from US20210106703A1, “RADIOIMMUNOCONJUGATES IN COMBINATION WITH OTHER DRUGS AS TREATMENT AGAINST NHL” (Nordic Nanovector ASA, priority 2017, published 2021).
Read-outs that look alike come from different tables or passages of the source.

Columns and labels:
U2932 cells = assay: Real Time Glo viability assay, Betalutin and cell cycle inhibitors (Example 2); type: cell-based, human; conditions: for viability at 0.1 µM / viability at 1 µM: Homo sapiens; for viability at 0.1 µM: U2932, U2932, drug 100 nM
Method: (§1) Cells were split twice a week 1:3-1:5 depending on cell density. […] Real Time Glo was purchased from Promega. 384 well plates were purchased from Greiner Bio-One.
(§2) Cells were treated for 18-20 h with Betalutin at a final concentration of 1 μg/ml and 2 μg/ml in 6-well cell culture plates with shaking. After treatment, PBS was added to the cells, and the cells pelleted. Cells were first resuspended in 1 ml PBS, then washed twice in PBS and finally diluted in growth medium at the desired concentration. All cell lines were treated at a cell concentration of 2.5*10^6 cells/ml.
(§3) Regardless of cell number the culturing volume was 25 μl. For Real Time Glo, the Cell Viability Substrate and NanoLuc® Enzyme were diluted 1:500 in growth medium, and 25 μL of diluted reagents added to each well. All reagents were equilibrated to 37° C. Cells were incubated with the reaction mix for 1 h at 37° C. before the first measurement of luminescence. Measurements were repeated as often as required within 72 h after adding the reagents. Digitonin was added to cells at 200 μg/ml to record background luminescence of dead cells. A Tecan SPARK 10M plate reader was used to measure luminescence, with an integration time set to 1 sec.
(§4) Growth inhibition was calculated by dividing the luminescence signal of the treated cells by the luminescence signal of the control cells for each day of measurement after start of treatment [Table 1].
(§5) To evaluate effects of the drugs alone [(−)Betalutin] and their combination with Betalutin [(+)Betalutin], we calculated the Z-score for each sample (ZdrugX=1-(+)BetalutindrugX/(−)BetalutindrugX), where (+)BetalutindrugX and (−) BetalutindrugX are the measured luminescence intensity values for drug X in presence and absence of Betalutin, respectively. The calculation of Z-score values separately for each plate enabled comparison of results across plates, despite variations between the plates in overall signal intensity.

RIVA cells = assay: as above; type: cell-based, human; conditions: for viability at 0.1 µM / viability at 1 µM: Homo sapiens, read-out: Growth inhibition (signal treated/control; 1 = no change); for viability at 0.1 µM: drug 100 nM
Method: as §1, §2, §3, §4, §5

[1] = (+)Betalutin, Dy3, read-out: Growth inhibition (signal treated/control; 1 = no change)
[2] = (+)Betalutin, Dy4, read-out: Growth inhibition (signal treated/control; 1 = no change)
[3] = (+)Betalutin, Dy5, read-out: Growth inhibition (signal treated/control; 1 = no change)
[4] = (+)Betalutin, Dy6, read-out: Growth inhibition (signal treated/control; 1 = no change)
[5] = (−)Betalutin, Dy3, read-out: Growth inhibition (signal treated/control; 1 = no change)
[6] = (−)Betalutin, Dy4, read-out: Growth inhibition (signal treated/control; 1 = no change)
[7] = (−)Betalutin, Dy5, read-out: Growth inhibition (signal treated/control; 1 = no change)
[8] = (−)Betalutin, Dy6, read-out: Growth inhibition (signal treated/control; 1 = no change)
[9] = U2932, U2932, drug 1 μM, (+)Betalutin, Dy3, read-out: Growth inhibition (signal treated/control; 1 = no change)
[10] = U2932, U2932, drug 1 μM, (+)Betalutin, Dy4, read-out: Growth inhibition (signal treated/control; 1 = no change)
[11] = U2932, U2932, drug 1 μM, (+)Betalutin, Dy5, read-out: Growth inhibition (signal treated/control; 1 = no change)
[12] = U2932, U2932, drug 1 μM, (+)Betalutin, Dy6, read-out: Growth inhibition (signal treated/control; 1 = no change)
[13] = U2932, U2932, drug 1 μM, (−)Betalutin, Dy3, read-out: Growth inhibition (signal treated/control; 1 = no change)
[14] = U2932, U2932, drug 1 μM, (−)Betalutin, Dy4, read-out: Growth inhibition (signal treated/control; 1 = no change)
[15] = U2932, U2932, drug 1 μM, (−)Betalutin, Dy5, read-out: Growth inhibition (signal treated/control; 1 = no change)
[16] = U2932, U2932, drug 1 μM, (−)Betalutin, Dy6, read-out: Growth inhibition (signal treated/control; 1 = no change)
[17] = RIVA, drug 1 μM, +Betalutin, Dy3
[18] = RIVA, drug 1 μM, +Betalutin, Dy4
[19] = RIVA, drug 1 μM, +Betalutin, Dy5
[20] = RIVA, drug 1 μM, +Betalutin, Dy6
[21] = RIVA, drug 1 μM, −Betalutin, Dy3
[22] = RIVA, drug 1 μM, −Betalutin, Dy4
[23] = RIVA, drug 1 μM, −Betalutin, Dy5
[24] = RIVA, drug 1 μM, −Betalutin, Dy6

Structure (SMILES) | viability at 0.1 µM (U2932 cells; [1]) [%] | viability at 0.1 µM (U2932 cells; [2]) [%] | viability at 0.1 µM (U2932 cells; [3]) [%] | viability at 0.1 µM (U2932 cells; [4]) [%] | viability at 0.1 µM (U2932 cells; [5]) [%] | viability at 0.1 µM (U2932 cells; [6]) [%] | viability at 0.1 µM (U2932 cells; [7]) [%] | viability at 0.1 µM (U2932 cells; [8]) [%] | viability at 1 µM (U2932 cells; [9]) [%] | viability at 1 µM (U2932 cells; [10]) [%] | viability at 1 µM (U2932 cells; [11]) [%] | viability at 1 µM (U2932 cells; [12]) [%] | viability at 1 µM (U2932 cells; [13]) [%] | viability at 1 µM (U2932 cells; [14]) [%] | viability at 1 µM (U2932 cells; [15]) [%] | viability at 1 µM (U2932 cells; [16]) [%] | Synergy for the combination with Betalutin (U2932 cells; U2932, drug 100 nM) | Synergy for the combination with Betalutin (U2932 cells; U2932, drug 1 μM) | viability at 0.1 µM (RIVA cells; RIVA, +Betalutin, Dy3) [%] | viability at 0.1 µM (RIVA cells; RIVA, +Betalutin, Dy4) [%] | further results
Cc1csc(-c2nnc(Nc3ccc(Oc4ncccc4-c4ccnc(N)n4)cc3)c3ccccc23)c1 [AMG 900] | 89 | 78 | 77 | 52 | 96 | 97 | 92 | 72 | 77 | 77 | 80 | 58 | 83 | 96 | 96 | 81 | Bliss + Z-score | Z-score | 22 | 16 | viability at 0.1 µM (RIVA cells; RIVA, +Betalutin, Dy5): 9%; viability at 0.1 µM (RIVA cells; RIVA, +Betalutin, Dy6): 8%; viability at 0.1 µM (RIVA cells; RIVA, −Betalutin, Dy3): 82%; viability at 0.1 µM (RIVA cells; RIVA, −Betalutin, Dy4): 85%; viability at 0.1 µM (RIVA cells; RIVA, −Betalutin, Dy5): 65%; viability at 0.1 µM (RIVA cells; RIVA, −Betalutin, Dy6): 51%; viability at 1 µM (RIVA cells; [17]): 9%; viability at 1 µM (RIVA cells; [18]): 8%; viability at 1 µM (RIVA cells; [19]): 5%; viability at 1 µM (RIVA cells; [20]): 4%; viability at 1 µM (RIVA cells; [21]): 60%; viability at 1 µM (RIVA cells; [22]): 57%; viability at 1 µM (RIVA cells; [23]): 49%; viability at 1 µM (RIVA cells; [24]): 40%
NC(=O)Nc1cc(-c2cccc(F)c2)sc1C(=O)N[C@H]1CCCNC1 [AZD7762] |  |  |  |  |  |  |  |  |  |  |  |  |  |  |  |  | Bliss + Z-score |  |  |  | viability at 1 µM (U2932 cells; U2932, read-out: Growth inhibition (signal treated/control; 1 = no change)): 4%; Growth inhibition (signal treated/control; 1 = no change) (U2932 cells; human): 0.03; viability at 1 µM (RIVA cells): 3%; Growth inhibition (signal treated/control; 1 = no change) (RIVA cells; human): 0.34
Cc1nc(N)sc1-c1ccnc(Nc2ccc(N3CCOCC3)cc2)n1 [CYC116] | 92 | 94 | 80 | 75 | 94 | 97 | 106 | 121 | 72 | 82 | 74 | 56 | 85 | 89 | 83 | 61 | Bliss + Z-score | Z-score | 13 | 10 | viability at 0.1 µM (RIVA cells; RIVA, +Betalutin, Dy5): 6%; viability at 0.1 µM (RIVA cells; RIVA, +Betalutin, Dy6): 6%; viability at 0.1 µM (RIVA cells; RIVA, −Betalutin, Dy3): 93%; viability at 0.1 µM (RIVA cells; RIVA, −Betalutin, Dy4): 94%; viability at 0.1 µM (RIVA cells; RIVA, −Betalutin, Dy5): 114%; viability at 0.1 µM (RIVA cells; RIVA, −Betalutin, Dy6): 92%; viability at 1 µM (RIVA cells; [17]): 22%; viability at 1 µM (RIVA cells; [18]): 20%; viability at 1 µM (RIVA cells; [19]): 14%; viability at 1 µM (RIVA cells; [20]): 14%; viability at 1 µM (RIVA cells; [21]): 62%; viability at 1 µM (RIVA cells; [22]): 78%; viability at 1 µM (RIVA cells; [23]): 70%; viability at 1 µM (RIVA cells; [24]): 65%
